Patent US4973603A, “Platelet activating factor antagonist and methods of use therefor” (priority 1989, dated 1990)
Entries after “also recorded” stand apart in the source; their conditions may differ.

Experiments:
[1] = system: platelet activating factor (PAF); experiment: PAF Induced Mortality; assay type: in vivo, mouse (Charles River CD-1, female)
Description: The induction of mortality by the injection of low doses of PAF into mice has been described as a method for assessing the effectiveness of agents to antagonize the anaphylactic properties of PAF by J. M. Young, P. J. Maloney, S. W. Jubb and J. S. Clarke, in Prostaglandins, 30:545-551 (1985). Charles River CD-1 female mice (25-30 g) were given intraperitoneal injections of PAF (10 μg) dissolved in 100 μl of 5% ethanol-saline. […] Test drugs were orally administered in 50 μl of peanut oil one hour prior to PAF injection. Control mice were dosed with vehicle only. Mortality was assessed by counting survivors at one hour, two hours, and twenty four hours after the PAF injection.

gastric mucosa = system: gastric mucosa
Description: Robert and Szabo, In: Selye's Guide to Stress Research, (Vol. 2, A. Selye, Ed.) New York; Van Nostrand Reinhold Co., pp. 22-46 (1983); and Robert et al., Gastroenterology, 77:433-443 (1979). Experimental groups of 5-11 rats (Charles River CD) were fasted for 24 hours before the administration of either aspirin, Formula I or indomethacin by a rubber stomach tube (Rusch No. 8). The animals were killed 1 hour later by carbon dioxide asphyxiation. At that time, 4 ml of 10% aqueous buffered formaldehyde (formalin) was injected directly into the stomach of each animal. […] After 5 minutes of in situ fixation, the stomach and proximal duodenum were removed, opened along the greater curvature, pinned on a cork with mucosa upward, and immersed in 10% formaldehyde until further processing. Szabo, S. et al., J. Pharmacol. Meth., 13:59-66 (1985). The gastric lesions were then evaluated by direct visual inspection.
For comparative purposes, a semiquantitative scale of 0-3 was used to assess the extent of gastric mucosal lesions. Szabo et al., Science, 214:200-202 (1981); and Szabo et al., Gastroenterology, 85:1384-1390 (1983). According to this scale, a score of 0 indicates a normal mucosa; 1 represents the appearance of between 1 and 4 small petechiae; 2 indicates the presence of 5 or more petechiae or hemmorhagic streaks up to 4 mm in length; 3 represents the appearance of erosions longer than 5 mm or confluent hemmorrhages.

arachidonic acid = experiment: The Mouse Ear Edema Test (arachidonic acid-induced skin edema); assay type: in vivo, mouse (Charles River CD-1, female); details: for % Inhibition of Edema: 1 hour before arachidonic acid (0.5 mg)
Description: The direct application of arachidonic acid to skin, such as the mouse ear, produces an edematous response which is believed to be mediated by eicosanoids resulting from the actions of both cyclooxygenase and lipoxygenase systems. J. M. Young, D. A. Spires, C. J. Bedford, B. Wagner, S. J. Ballaron and L. M. DeYoung, J. Invest. Dermatol. 82:367-371 (1984); E. E. Opas, R. J. Bonney, and J. L. Hanes J. Invest. Dermatol. 84:253-256 (1985). PAF has been reported to cause the release of arachidonic acid, and as a result, gives rise to increased levels of eicosanoids in the exposed tissues. F. H. Chilton, J. T. Flaherty, C. E. Walsh, M. J. Thomas, R. L. Wykle, L. R. DeChatelet and B. M. Waite, J. Biol. Chem., 257:5402-5407 (1982). Thus, the mouse ear edema test can be used to discover substances which antagonize the effects of PAF.
The test drugs were dissolved in 10 μl ethanol and applied to the inner surface of the left ears of Charles River CD-1 female mice. Control values were obtained by applying 10 μl of ethanol to the right ear so that each mouse served as its own control. One hour later, arachidonic acid (0.5 mg/ear in 10 μl ethanol) was applied to both ears and allowed to act on the skin for one hour. The mice were then killed by cervical dislocation and the ears removed so that all tissue samples were of equivalent areas. The extent of edema in each sample was measured by weighing on an analytical balance.

[2] = system: 5-HETE synthesis in mouse peritoneal macrophages; experiment: Inhibition of 5-HETE Synthesis in mouse peritoneal macrophages; assay type: cell-based, mouse (CD-1, female); details: for 5-HETE (%) (percentage of total recovered radioactivity): vehicle 2.9 ± 0.16
Description: It has been proposed that products of lipoxygenase action such as leukotriene […] (LTB4) and 5-hydroxyeicosatetraenoic acid (5-HETE) can act synergistically with PAF to cause neutrophil degranulation which may contribute to the development of inflammation. J. T. O'Flaherty, J. Cell Biology, 122:229-239 (1985). Formula I was tested as an inhibitor of 5-HETE production in mouse peritoneal macrophages using the following procedure.
Peritoneal cells were collected from female CD-1 mice (20-25 g) following sacrifice by cervical dislocation. The cells from each group of mice were pooled, centrifuged and suspended in MEM. Aliquotes containing 4.5×10^6 cells in 3.0 ml MEM were placed in culture dishes and incubated for 18 hours at 37° C. By this procedure, a relatively homogenous monolayer of macrophages was obtained. Eicosanoid synthesis was brought about by the addition of ^14 C-arachidonic acid (2×10^5 dpm; 0.22 μM) followed by a calcium ionophore, A23187 (0.03 μM). After 15 minutes, the reaction was stopped by the addition of citric acid to pH4 and the products were extracted with ethyl acetate. Silica gel thin layer chromatography (hexane; ether; acetic acid; 50:50:1) was used to separate the 5-HETE which was identified by comparison with authentic material. Carbon-14 content was measured by liquid scintillation counting of the HETE containing zone. The significance of drug induced changes was calculated using the Student's test when compared with vehicle treated (ethanol, 30 μl) cells.

[3] = 20 mg/kg oral, 1 hr after PAF (10 μg i.p.)
[4] = 20 mg/kg oral, 2 hrs after PAF (10 μg i.p.)
[5] = 20 mg/kg oral, 24 hrs after PAF (10 μg i.p.)
[6] = 40 mg/kg oral, 1 hr after PAF (10 μg i.p.)
[7] = 40 mg/kg oral, 2 hrs after PAF (10 μg i.p.)
[8] = 40 mg/kg oral, 24 hrs after PAF (10 μg i.p.)
[9] = 80 mg/kg oral, 1 hr after PAF (10 μg i.p.)
[10] = 80 mg/kg oral, 2 hrs after PAF (10 μg i.p.)
[11] = 80 mg/kg oral, 24 hrs after PAF (10 μg i.p.)

CCCCCc1cc(O)c2c(c1)OC(C)(C)C1CC=C(C(=O)O)CC21 (stereo not shown) [Formula I, 6a,7,10,10a-tetrahydro-6,6-dimethyl-9-carboxyl-3-pentyl-6H-dibenzo[b,d]pyran-1-ol]
Survivors (%) [1, 3]: 25%
Survivors/N [1, 3]: 5/20
Survivors (%) [1, 4]: 25%
Survivors/N [1, 4]: 5/20
Survivors (%) [1, 5]: 25%
Survivors/N [1, 5]: 5/20
Survivors (%) [1, 6]: 80%
Survivors/N [1, 6]: 12/15
Survivors (%) [1, 7]: 80%
Survivors/N [1, 7]: 12/15
Survivors (%) [1, 8]: 80%
Survivors/N [1, 8]: 12/15
survival rate ([1]; 40 mg/kg oral, all time points (1, 2, 24 hours)): 80%
Survivors (%) [1, 9]: 70%
Survivors/N [1, 9]: 7/10
Survivors (%) [1, 10]: 70%
Survivors/N [1, 10]: 7/10
Survivors (%) [1, 11]: 70%
Survivors/N [1, 11]: 7/10
antagonism of anaphylactic effects of PAF (in words) ([1]; oral, mouse): potent antagonist to the anaphylactic effects of PAF
Incidence (rats with lesions/total tested) (gastric mucosa; 80 mg/kg by stomach tube, 1 hour): 0/10
Mean Score (gastric mucosa; 80 mg/kg by stomach tube, 1 hour, scale 0-3 (0 = normal mucosa)): 0.0
ulcer / gastric lesion formation (in words) (gastric mucosa; directly into the stomach, Formula I at twice its therapeutic dose in the mouse (40 mg/kg), 40 mg/kg): did not induce ulcer formation; also recorded: does not induce the formation of gastric lesions
% Inhibition of Edema (arachidonic acid; 0.13 mg/ear topical): 0.6%
% Inhibition of Edema (arachidonic acid; 0.25 mg/ear topical): 18.3%
% Inhibition of Edema (arachidonic acid; 0.50 mg/ear topical): 19.1%
% Inhibition of Edema (arachidonic acid; 1.0 mg/ear topical): 19.3%
reduction of arachidonic acid-induced skin edema (in words) (arachidonic acid; topical, mouse ear): effective in reducing arachidonic acid-induced skin edema
relative activity versus naproxen (arachidonic acid; topical, mouse ear): more active than the widely used antiinflammatory drug naproxen
relative potency versus indomethacin and phenidone (arachidonic acid; topical, mouse ear): approximately one half the potency of agents such as indomethacin and phenidone
5-HETE (%) (percentage of total recovered radioactivity) ([2]; 0.32 μM): 3.08 ± 0.36%
5-HETE (%) (percentage of total recovered radioactivity) ([2]; 1.6 μM): 3.03 ± 0.42%
5-HETE (%) (percentage of total recovered radioactivity) ([2]; 3.2 μM): 1.58 ± 0.41%
5-HETE (%) (percentage of total recovered radioactivity) ([2]; 4 μM): 1.68 ± 0.15%
5-HETE (%) (percentage of total recovered radioactivity) ([2]; 8 μM): 1.48 ± 0.87%
5-HETE (%) (percentage of total recovered radioactivity) ([2]; 16 μM): 3.10 ± 0.10%
inhibition at 3.2 µM ([2]; Mus musculus, Peritoneal macrophage, 3.2 μM): 46%
inhibition at 4 µM ([2]; Mus musculus, Peritoneal macrophage, 4 μM): 42%
inhibition at 8 µM ([2]; Mus musculus, Peritoneal macrophage, 8 μM): 49%
reduction of 5-HETE synthesis (in words) ([2]; dose range of 3.2 to 8 μM): reduces 5-HETE synthesis to one half of the control level
